3 compounds from US20230301298A1, “Biocide Compositions” (BASF SE, priority 2020, published 2023) can be followed below.

Data set [1] in a line: Solubility of biocide in two-component solvent system (A1:A2). The data set is classed as physicochemical. The procedure: Component (A1) and component (A2) were mixed and heated to a temperature in the range of 20° C. to 100° C. to obtain a solution. Respective amount of the biocide was charged to the above solution at a temperature in the range of 20° C. to 100° C. to obtain the solution containing biocide. Emulsifier and other optional ingredients were charged o to the above biocide containing solution to obtain the emulsifiable composition (C).

The nature of data set [2]: Solubility of azoxystrobin in three components solvent system. It is filed as physicochemical. The protocol:
Component (A1) and component (A2) were mixed and heated to a temperature in the range of 20° C. to 100° C. to obtain a solution. Respective amount of the biocide was charged to the above solution at a temperature in the range of 20° C. to 100° C. to obtain the solution containing biocide. Emulsifier and other optional ingredients were charged o to the above biocide containing solution to obtain the emulsifiable composition (C). It is evident from table 1 to 5 that the biocides can be solubilised in a combination of at least one component (A1) and at least one component (A2) and which can be further formulated to stable emulsion concentrate. It can be inferred from table 4 that the tebuconazole can be formulated to an emulsifiable concentrate compared to suspension concentrate or emulsion concentrate in aromatic solvent system. Further, table 5 discloses that a three components solvent system also aids in solubilizing the biocides or adding water to two-components solvent system can improve the solubility of the biocide(s).

Where [3] appears, read: solvent system 2-phenylethanol : Formic acid, molar ratio 1:2.
[4] abbreviates: solvent system 2-phenylethanol : Formic acid, molar ratio 2:1.
The mark [5] stands for this setting: solvent system 2-phenylethanol : Methyl salicylate, molar ratio 1:1.
Setting [6] is: solvent system 2-phenylethanol : Methyl salicylate, molar ratio 2:1.
[7] abbreviates: solvent system 4-methylcyclohexanol : Methyl salicylate, molar ratio 1:2.
Setting [8] is: solvent system Cyclohexanol : D,L-Lactic acid, molar ratio 1:1.
The mark [9] stands for this setting: solvent system Thymol : Phenyl acetic acid, molar ratio 2:1.
The mark [10] stands for this setting: solvent system formic acid : Methyl salicylate, molar ratio 2:1.

Several values for one entry are separate records, joined by “and”; a condition that tells them apart may be missing. Identical values can stand only once.

In the case of `CC(C)(C)C(O)(CCc1ccc(Cl)cc1)Cn1cncn1` (stereo not shown) [Tebuconazole], the “Solubility wt. % in total (C)” value in data set [1] (solvent system 2-phenylethanol : Formic acid, molar ratio 1:1) is listed as 40 wt. %; in data set [1] (setting [3]), 40 wt. %; in data set [1] (setting [4]), 35 wt. %; in data set [1] (setting [5]) it was 38 wt. %; in data set [1] (setting [6]) it was 42 wt. %; in data set [1] (setting [7]), 35 wt. %. The “Solubility wt. % in total (C)” value in data set [1] (setting [8]) came out at 47 wt. %; in data set [1] (solvent system Cyclohexanol : Methyl salicylate, molar ratio 1:2) it was 38 wt. %; in data set [1] (setting [9]), 36 wt. %; in data set [1] (setting [10]), 50 wt. %.
For `CS(=O)(=O)c1ccc(C(=O)C2C(=O)CCCC2=O)c([N+](=O)[O-])c1` [Mesotrione], the “Solubility wt. % in total (C)” value in data set [1] (setting [9]) is reported as 20 wt. %.
In the case of `CO/C=C(/C(=O)OC)c1ccccc1Oc1cc(Oc2ccccc2C#N)ncn1` [Azoxystrobin], the “Solubility of Azoxystrobin wt. % in total (C)” value is listed as 24 wt. % in data set [2] (2-Phenoxyethanol:Methyl Salicylate:Water (tap), molar ratio 1:1:0.5); 29 wt. % in data set [2] (2-Phenoxyethanol:Methyl salicylate:D,L-Lactic acid, molar ratio 1:1:2); 21 wt. % in data set [2] (2-Phenoxyethanol:Veratrole:D,L-Lactic acid, molar ratio 1:1:2); 25 wt. % in data set [2] (2-Phenoxyethanol:Veratrole:Water (tap), molar ratio 1:2:0.5); 25 wt. % in data set [2] (2-Phenylethanol:Methyl Salicylate:Water (tap), molar ratio 1:1:0.5); 25 wt. % in data set [2] (2-Phenylethanol:phenyl acetic acid:Water (tap), molar ratio 2:1:0.5). Moreover, the “Solubility wt. % in total (C)” value in data set [1] (solvent system 2-phenoxyethanol : D,L-Lactic acid, molar ratio 1:1) is recorded as 36 wt. %; in data set [1] (solvent system 2-phenoxyethanol : D,L-lactic acid, molar ratio 1:2) it was 20 wt. %; in data set [1] (solvent system 2-phenoxyethanol : Methyl salicylate, molar ratio 1:1), 19 wt. %; in data set [1] (solvent system 2-phenoxyethanol : Veratrole, molar ratio 2:1), 23 wt. %; in data set [1] (solvent system 2-phenylethanol : D,L-Lactic acid, molar ratio 1:1), 25 wt. %; in data set [1] (solvent system 2-phenylethanol : D,L-Lactic acid, molar ratio 2:1) it was 22 wt. %. Also, the “Solubility wt. % in total (C)” value in data set [1] (setting [3]) is 20 wt. %; in data set [1] (setting [4]) it was 20 wt. %; in data set [1] (setting [5]), 27 wt. %; in data set [1] (solvent system 2-phenylethanol : Methyl salicylate, molar ratio 1:2), 25 wt. % and 24 wt. %; in data set [1] (setting [6]), 27 wt. % and 23 wt. %; in data set [1] (solvent system 2-phenylethanol : Phenyl acetic acid, molar ratio 2:1), 25 wt. %. In addition, the “Solubility wt. % in total (C)” value in data set [1] (solvent system 4-isopropylbenzylalcohol : Phenyl acetic acid, molar ratio 2:1) is on record as 24 wt. %; in data set [1] (solvent system 4-methylcyclohexanol : Hydroxy pivalic acid, molar ratio 2:1) it was 24 wt. %; in data set [1] (setting [7]), 20 wt. %; in data set [1] (solvent system Carvacrol : 2-ethylphenol, molar ratio 1:2), less than 49 wt. %; in data set [1] (setting [8]) it was 20 wt. %; in data set [1] (solvent system Cyclohexanol : D,L-Lactic acid, molar ratio 1:2), 20 wt. %. Besides, the “Solubility wt. % in total (C)” value in data set [1] (solvent system Cyclohexanol : Hydroxy pivalic acid, molar ratio 2:1) turned out to be 21 wt. %; in data set [1] (solvent system D,L-Lactic acid : 1,2-dimethoxy benzene, molar ratio 2:1), 32 wt. %; in data set [1] (solvent system D,L-Lactic acid : 2-phenoxyethanol, molar ratio 1:1), 23 wt. %; in data set [1] (solvent system D,L-Lactic acid : 4-acetylanisole, molar ratio 2:1), 22 wt. %; in data set [1] (solvent system D,L-Lactic acid : 4-isopropylbenzyl alcohol, molar ratio 2:1), 33 wt. %; in data set [1] (solvent system D,L-Lactic acid : Veratrole, molar ratio 2:1), 24 wt. %. Further, the “Solubility wt. % in total (C)” value amounted to 49 wt. % in data set [1] (solvent system Formic acid : 1,2-dimethoxy benzene, molar ratio 2:1); 28 wt. % in data set [1] (solvent system Thymol : (L)-menthol, molar ratio 1:1); 60 wt. % in data set [1] (setting [9]); 27 wt. % in data set [1] (solvent system formic acid : Methyl salicylate, molar ratio 1:2); 40 wt. % in data set [1] (setting [10]).
